Source: PubChem BioAssay (NCI)
Values joined by “and” are separate entries in the source; they are usually repeats but may differ in a detail not shown here. Equal values may be shown once.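 Assay format: 96-well plates, 48-hour exposure. The concentration for 50% growth inhibition is given as GI50. TGI is the concentration that stops growth completely.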

What was measured:
Experiment in all cases: growth of human tumour cells (NCI), 48 h
HCT-116 colon = tested on: HCT-116 colon
HCC-2998 colon = tested on: HCC-2998 colon
SNB-75 CNS = tested on: SNB-75 CNS
SN12C renal = tested on: SN12C renal
NCI-H23 lung = tested on: NCI-H23 lung
SW-620 colon = tested on: SW-620 colon
KM12 colon = tested on: KM12 colon
NCI-H226 lung = tested on: NCI-H226 lung
DU-145 prostate = tested on: DU-145 prostate
OVCAR-5 ovarian = tested on: OVCAR-5 ovarian

| Structure (SMILES) | TGI (HCT-116 colon) | TGI (HCC-2998 colon) [µM] | TGI (SNB-75 CNS) [µM] | TGI (SN12C renal) [µM] | TGI (NCI-H23 lung) [µM] | TGI (SW-620 colon) [µM] | TGI (KM12 colon) [µM] | TGI (NCI-H226 lung) [µM] | TGI (DU-145 prostate) [µM] | TGI (OVCAR-5 ovarian) | GI50 (HCT-116 colon) [µM] | GI50 (HCC-2998 colon) [µM] | GI50 (SNB-75 CNS) [µM] | GI50 (SN12C renal) [µM] | GI50 (NCI-H23 lung) [µM] | GI50 (SW-620 colon) [µM] | GI50 (KM12 colon) [µM] | GI50 (NCI-H226 lung) [µM] | GI50 (DU-145 prostate) [µM] | GI50 (OVCAR-5 ovarian) [µM] |
| --- | --- | --- | --- | --- | --- | --- | --- | --- | --- | --- | --- | --- | --- | --- | --- | --- | --- | --- | --- | --- |
| O=C(CC(=O)c1ccccc1NC1=Cc2ccccc2C(=O)C1=O)C(=O)NC1=C(Cl)C(=O)c2ccccc2C1=O | 6.37 µM | 26.8 | 3.19 | 3.67 | 6.25 | 7.98 | 15.6 | 20.1 | 16.1 | 12.6 µM | – | – | – | – | – | – | – | – | – | – |
| C#CC#CC#CC#CC#CC#CC#CC#CCC1OC[C@H](COC(=O)O[C@@H](C(=O)O[C@H]2C[C@@]3(O)[C@@H](OC(=O)c4ccccc4)[C@@H]4[C@]5(OC(C)=O)CO[C@@H]5C[C@H](O)[C@@]4(C)C(=O)[C@H](OC(C)=O)C(=C2C)C3(C)C)[C@@H](NC(=O)c2ccccc2)c2ccccc2)O1 (stereo partly specified) | > 33.3 µM | > 33.3 | 0.648 | > 33.3 | > 33.3 | > 33.3 | > 33.3 | > 33.3 | > 33.3 | > 33.3 µM | 0.145 | 0.52 | 0.0727 | 1.34 | 0.888 | 0.261 | 0.196 | > 33.3 | 0.228 | 0.554 |
| COc1ccc(-c2[nH]ncc2-c2cc(OC)c(OC)c(OC)c2)cc1 | 12.2 µM | 19.2 | 21 | > 81.8 | 26.7 | > 41.5 | 13.1 | 34.8 | 1.64 | > 47.7 µM | < 0.01 | 0.0147 | < 0.01 | – | 0.0103 | < 0.01 | < 0.01 | < 0.0148 | < 0.01 | < 0.018 |
| CC(C)c1ccc(O)c(=O)cc1 | 13.4 µM and 37.2 µM | > 100 | > 100 | > 100 | > 74 | > 100 | > 100 | 36.5 | – | 64.8 µM and > 100 µM | 3.92 | – | 75.4 | 5.85 | 17.2 | 6.15 | 5.28 | 66.7 | 9.43 | 6.84 |
| CN(C)CCCC(=O)Nc1ccc(Cn2nnc3c2C(=O)c2nnn(Cc4ccc(NC(=O)CCCN(C)C)cc4)c2C3=O)cc1 | 11.6 µM | 5.22 | 3.06 | 4 | 5.01 | 12.2 | 22.7 | 42.2 | 10.6 | 51.4 µM | 3.03 | 2.43 | 1.69 | 1.96 | 2.13 | 3.43 | 7.54 | 16.5 | 3.48 | 19 |
| CCOC(=O)c1cnc2c(cnn2CC)c1NN=C(C)C | > 100 µM | > 100 | > 100 | > 100 | > 100 | > 100 | > 100 | > 100 | > 100 | > 100 µM | 47.1 | > 100 | 36.6 | 38.2 | > 100 | 83.8 | 67.1 | 57.4 | 29.5 | 26.6 |
| O=C1C=C(Nc2nc(C(=O)O)cc(=O)[nH]2)c2ccccc2C1=O | > 100 µM | > 100 | > 100 | > 100 | > 100 | > 100 | > 100 | > 100 | > 100 | > 100 µM | – | – | – | – | – | – | – | – | – | – |
| CC12CCC(O)CC1CCC1C2CCC2(C)C(C3=CC(=O)OC3)CCC12 (stereo unspecified) | > 100 µM | > 100 | 21.2 | > 100 | > 64.6 | > 100 | > 100 | > 100 | > 100 | > 100 µM | 25.5 | > 100 | 6.9 | 53.8 | 5.81 | > 100 | > 100 | > 33.6 | 42.4 | > 100 |
| COc1cccc2c1C(=O)c1c(O)c3c(c(O)c1C2=O)C[C@@](O)(/C(C)=N\O)C[C@@H]3OC1CC(N)C(O)C(C)O1 (stereo partly specified) | 7.55 µM | 3.04 | 2.54 | 13.1 | 3.8 | 10.3 | 15.8 | 7.52 | 5.74 | 12.2 µM | – | – | – | – | – | – | – | – | – | – |
| NCC(=O)CCC(=O)O | > 100 µM | > 100 | > 100 | > 100 | > 100 | > 100 | > 100 | > 100 | > 100 | > 100 µM | > 100 | > 100 | > 100 | > 100 | > 100 | > 100 | > 100 | > 100 | > 100 | > 100 |
| COc1cccc(C2C(C#N)=C(N)Oc3cc(OC)ccc32)c1 (stereo unspecified) | 12.4 µM | – | > 49.6 | > 41.8 | > 33 | > 100 | 5.61 | > 100 | 1.55 | > 100 µM | 0.0479 | 0.0594 | 0.0263 | 0.0773 | 0.0415 | 0.035 | 0.0314 | 0.896 | 0.0347 | 0.0678 |
| COc1ccc(-c2nn(-c3cccc(NC(=O)Nc4cccc(C(F)(F)F)c4)c3)cc2-c2ccncc2)cc1Cl | 9.04 µM | > 100 | 8.37 | > 100 | > 100 | > 100 | 5.23 | 9.43 | > 100 | > 100 µM | 1.31 | 5.32 | 1.51 | 2.4 | 3.02 | 3.37 | 1.47 | 2.14 | 3.56 | 3.73 |
| C=C1CO[C@@H]2C[C@@H]1CCC1(C)OC1CC/C(C)=C/CC[C@@]2(C)O (stereo partly specified) | 31.2 µM | > 84 | 97.4 | 67.8 | > 73 | 38.4 | 42 | > 100 | 31.2 | > 100 µM | 15.7 | 43.1 | 21.7 | 25.6 | 27.8 | 15.8 | 17.7 | > 100 | 16.1 | > 100 |
